As usually defined, the IC50 is the concentration at which inhibition is half-maximal. Read a low IC50 as inhibition by little substance.

Data on 31 molecules can be found in ChEMBL document CHEMBL5365399, “Design, synthesis and evaluation of new pyrimidine derivatives as EGFRC797S tyrosine kinase inhibitors” (Bioorg Med Chem Lett, 2023).

One assay deals with HCC827. Description: Antiproliferative activity against human HCC827 cells by MTT assay. It counts as functional, cell-based. A general note: Tetrazolium assays rely on reduction of a dye to a coloured formazan, in cell work by metabolically active cells.
Assay [1] in a line: (§1) Antiproliferative activity against mouse KC-0116 cells by MTT assay. In kind it is functional, cell-based.
Assay [2] is described as follows: Antiproliferative activity against mouse KC-0122 cells by MTT assay. It counts as functional, cell-based.
For a further assay, the system named is NCI-H1975. Description: Antiproliferative activity against human NCI-H1975 cells by MTT assay. In kind it is functional, cell-based.
Assay [3] can be described thus: Antiproliferative activity against mouse Ba/F3 EGFR-T790M/C797S/L858R cells. In kind it is functional, cell-based.
The nature of assay [4]: Antiproliferative activity against mouse Ba/F3 EGFR-Del19/T790M/C797S cells. In kind it is functional, cell-based.
A short description of assay [5]: Induction of apoptosis in mouse KC-0116 cells assessed as necrotic cells at 300 nM measured after 36 hrs by Annexin V/propidium iodide staining based flow cytometry (reference value: 0.03%). In kind it is functional. Background: Flow cytometry measures light scatter and fluorescence of single cells or particles in a stream.
Assay [6] is described as follows: Induction of apoptosis in mouse KC-0116 cells assessed as early apoptotic cells at 100 nM measured after 36 hrs by Annexin V/propidium iodide staining based flow cytometry (reference value: 6.85%). In kind it is functional.
Assay [7] relates to KC-0116. The assay is described as §1. In kind it is functional, cell-based.
Assay [8] is described as follows: Induction of apoptosis in mouse KC-0116 cells assessed as necrotic cells at 100 nM measured after 36 hrs by Annexin V/propidium iodide staining based flow cytometry (reference value: 0.03%). In kind it is functional.
Assay [9] in a line: Induction of apoptosis in mouse KC-0116 cells assessed as early apoptotic cells at 300 nM measured after 36 hrs by Annexin V/propidium iodide staining based flow cytometry (reference value: 6.85%). It counts as functional.
Assay [10] in a line: Induction of apoptosis in mouse KC-0116 cells assessed as late apoptotic cells at 100 nM measured after 36 hrs by Annexin V/propidium iodide staining based flow cytometry (reference value: 2.47%). It counts as functional.
For assay [11], the system named is KC-0116. Description: Inhibition of EGFR-del19/T790M/C797S in mouse KC-0116 cells assessed as reduction in AKT phosphorylation measured after 8 hrs by Western blot analysis. It counts as cell-based. Conditions: dose 0.3-3 µM.
Assay [12] relates to KC-0116. Description: Induction of apoptosis in mouse KC-0116 cells measured after 36 hrs by Annexin V/propidium iodide staining based flow cytometry. It counts as functional, cell-based. Conditions: dose 0.1-3 µM.
Assay [13] in a line: Induction of apoptosis in mouse KC-0116 cells assessed as viable cells at 100 nM measured after 36 hrs by Annexin V/propidium iodide staining based flow cytometry (reference value: 90.66%). In kind it is functional. Conditions: read-out: Activity.
The test system of a further assay is A-431. Description: Antiproliferative activity against human A-431 cells by MTT assay. It counts as functional, cell-based.
Assay [14] in a line: Induction of apoptosis in mouse KC-0116 cells assessed as viable cells at 300 nM measured after 36 hrs by Annexin V/propidium iodide staining based flow cytometry (reference value: 90.66%). In kind it is functional. The following applies: read-out: Activity.
In assay [15] the test system is KC-0116. Description: Inhibition of EGFR-del19/T790M/C797S in mouse KC-0116 cells assessed as reduction in EGFR phosphorylation measured after 8 hrs by Western blot analysis. In kind it is cell-based. The following applies: dose 0.3-3 µM. In general terms: In western blotting, separated proteins are transferred to a membrane and probed.
The nature of assay [16]: Induction of apoptosis in mouse KC-0116 cells assessed as late apoptotic cells at 300 nM measured after 36 hrs by Annexin V/propidium iodide staining based flow cytometry (reference value: 2.47%). It counts as functional.
Assay [17] relates to KC-0116. Description: Cell cycle arrest in mouse KC-0116 cells assessed as increase in cell population at G2/M-phase at 0.1 to 0.3 uM measured after 48 hrs by flow cytometry. In kind it is functional, cell-based. The following applies: dose 0.1-0.3 µM.

Activity calls are given as the source filed them. The rule behind the calls is not given here. Bounds are passed on as bounds.

For the molecule `C=CC(=O)Nc1cc(Nc2nccc(-c3cn(C)c4ccccc34)n2)c(OC)cc1N(C)CCN(C)C` [OSIMERTINIB], the IC50 with HCC827 worked out at 1 nM; in [1], 1430 nM; in [2], 1530 nM; in the assay with NCI-H1975, […].

In the case of `CN(C)C1CCN(c2ccc(Nc3ncc(Cl)c(N[C@H]4CCCN(C(=O)CO)C4)n3)cc2)CC1`, the IC50 in assay [1] is 1660 nM.

The molecule `CN1CCN(c2ccc(Nc3ncc(Br)c(NC4CCOCC4)n3)cc2)CC1` showed an IC50 in assay [1] of 710 nM.

`CN(C)C1CCN(c2ccc(Nc3ncc(Cl)c(NC4CCN(C(=O)CO)CC4)n3)cc2)CC1` had a 50% inhibitory concentration (IC50) in assay [1] of 2460 nM. This IC50 is about 3.5-fold higher than that of the molecule before.

The molecule `CN(C)C1CCN(c2ccc(Nc3ncc(Cl)c(N[C@H]4CCN(C(=O)CO)C4)n3)cc2)CC1` came in with an IC50 in [1] of over 3300 nM.

Turning to `CN1CCN(c2ccc(Nc3ncc(Br)c(N[C@H]4CCCN(S(=O)(=O)C5CC5)C4)n3)cc2)CC1`, the IC50 in [1] came to 2000 nM.

Molecule `CN1CCN(c2ccc(Nc3ncc4c5ccc(OC(F)(F)F)cc5n(-c5cccc(NC(=O)CN)c5)c4n3)cc2)CC1` showed an IC50 in assay [1] of over 3300 nM.

Consider `COc1cc(N2CCC(N3CCN(C)CC3)CC2)c(C)cc1Nc1ncc(Br)c(Nc2ccc3nccnc3c2P(C)(C)=O)n1`, for which the figures for the IC50 in assay [3] and in assay [4] were 0.21 nM and 0.16 nM, respectively.

As for `CN1CCN(c2ccc(Nc3ncc(Br)c(N[C@@H]4CCCN(S(=O)(=O)C5CC5)C4)n3)cc2)CC1`, the Activity in [5] is 0%; in assay [6] it was 11.51%; in the assay with KC-0116 [7] it was “Dose-Dependent Effect”; in assay [8], 0.01%; in assay [9] it was 14.6%; in assay [10], 4.61%. The figures for the Activity entry (with KC-0116 [12]; in assay [16]) were “Dose-Dependent Effect” and 5.19%, respectively. The IC50 in the assay with HCC827 was over 3300 nM; in assay [1], 200 nM; in assay [2], 210 nM; in the assay on NCI-H1975 it was over 3300 nM; in the assay on A-431, 620 nM. The inhibition result in the assay on KC-0116 [11] and in the assay with KC-0116 [15] was “Dose-Dependent Effect” throughout. In assay [13], the viability at 0.1 µM was determined as 83.9%. Further, the viability at 0.3 µM in assay [14] amounted to 80.2%. Moreover, the result with KC-0116 [17] was Active.

Consider `CN1CCN(c2ccc(Nc3ncc(Cl)c(N[C@H]4CC[C@H](O)CC4)n3)cc2)CC1`, for which the IC50 in assay [1] was found to be 310 nM.

Turning to `CN(C)C1CCN(c2ccc(Nc3ncc(Cl)c(N[C@@H]4CCN(S(=O)(=O)C5CC5)C4)n3)cc2)CC1`, the IC50 in [1] came to 460 nM. This IC50 and that of the molecule before are within 1.5-fold of each other.

In [1], `CN1CCN(c2ccc(Nc3ncc4c5ccccc5n([C@H]5CCN(S(=O)(=O)C6CC6)C5)c4n3)cc2)CC1` gave an IC50 of over 3300 nM.

Molecule `CN(C)C1CCN(c2ccc(Nc3ncc(Cl)c(N[C@@H]4CCCN(C(=O)CO)C4)n3)cc2)CC1` came in with an IC50 in assay [1] of over 3300 nM.

In [1], `CN1CCN(c2ccc(Nc3ncc(-c4ccccc4)c(N[C@H]4CCN(S(=O)(=O)C5CC5)C4)n3)cc2)CC1` had an IC50 of over 3300 nM.

In assay [1], `CN1CCN(c2ccc(Nc3ncc4c5ccccc5n(-c5ccc(NC(=O)CN)cc5)c4n3)cc2)CC1` showed an IC50 of over 3300 nM.

`CN1CCN(c2ccc(Nc3ncc(Br)c(NC4CCN(S(C)(=O)=O)CC4)n3)cc2)CC1` returned an IC50 in [1] of 940 nM. This lies in the sub-micromolar range.

On to `COc1cc(N2CCC(N3CCN(C)CC3)CC2)ccc1Nc1ncc(Cl)c(Nc2ccccc2P(C)(C)=O)n1` [BRIGATINIB], for which the Activity in assay [5] was determined as 0.02%; in [9] it was 7.2%; in [16], 1.94%. Moreover, the IC50 stood at 13 nM in the assay with HCC827; 360 nM in [1]; 5.57 nM in [3]; 440 nM in assay [2]; 830 nM with NCI-H1975; 500 nM in the assay with A-431. Also, in assay [14], the viability at 0.3 µM turned out to be 90.8%.

The molecule `CN1CCN(c2ccc(Nc3ncc4c5ccccc5n(-c5cccc(NCCO)c5)c4n3)cc2)CC1` gave an IC50 in assay [1] of over 3300 nM.

As to `CN1CCN(c2ccc(Nc3ncc4c5ccccc5n(-c5cccc(NC(=O)CO)c5)c4n3)cc2)CC1`, in assay [1], the IC50 was over 3300 nM.

As to `CN(C)C1CCN(c2ccc(Nc3ncc(Br)c(N[C@H]4CC[C@H](O)CC4)n3)cc2)CC1`, in assay [1], the midpoint of inhibition, the IC50, lay at 480 nM.

Turning to `CN1CCN(c2ccc(Nc3ncc(Br)c(NC4CCN(S(=O)(=O)C5CC5)CC4)n3)cc2)CC1`, the IC50 in assay [1] was 1100 nM.

As for `CN1CCN(c2ccc(Nc3ncc(Br)c(Nc4cccc(NC(=O)CN)c4)n3)cc2)CC1`, half-maximal inhibition in assay [1] (IC50) required 440 nM. Compared with the last molecule, the IC50 is about 2.5-fold lower.

`CC(=O)N1CCC(Nc2nc(Nc3ccc(N4CCN(C)CC4)cc3)ncc2Br)CC1` showed an IC50 in assay [1] of 950 nM.

The molecule `CN1CCN(c2ccc(Nc3ncc(Br)c(N[C@@H]4CCN(S(=O)(=O)C5CC5)C4)n3)cc2)CC1` had an IC50 in assay [1] of 3010 nM. Compared with the last molecule, the IC50 is about 3.2-fold higher.

Regarding `CN1CCN(c2ccc(Nc3ncc4c5ccccc5n(-c5cccc(NS(C)(=O)=O)c5)c4n3)cc2)CC1`, the IC50 in assay [1] was over 3300 nM.

In [1], `CN1CCN(c2ccc(Nc3ncc(Br)c(NCc4ccccn4)n3)cc2)CC1` yielded an IC50 of 1310 nM.

For the molecule `CN1CCN(c2ccc(Nc3ncc(C(F)(F)F)c(N[C@H]4CC[C@H](O)CC4)n3)cc2)CC1`, the IC50 in [1] was over 3300 nM.

Take `CN1CCN(c2ccc(Nc3ncc(Br)c(N[C@H]4CCN(S(=O)(=O)C5CC5)C4)n3)cc2)CC1`: the IC50 in assay [1] was 1130 nM.

As to `CN1CCN(c2ccc(Nc3ncc(Br)c(N[C@H]4CC[C@H](O)CC4)n3)cc2)CC1`, the IC50 is 650 nM with HCC827; 240 nM in [1]; 250 nM in assay [2]; 580 nM in the assay on NCI-H1975; over 3300 nM with A-431.

Molecule `CN(C)C1CCN(c2ccc(Nc3ncc(Cl)c(N[C@H]4CCN(S(=O)(=O)C5CC5)C4)n3)cc2)CC1` displayed a concentration for half-maximal inhibition (IC50) in assay [1] of over 3300 nM.

The molecule `CN1CCN(c2ccc(Nc3ncc(-c4ccccc4)c(Nc4cccc(NC(=O)CN)c4)n3)cc2)CC1` yielded an IC50 in assay [1] of over 3300 nM.
